According to ChEMBL document CHEMBL5120862, “Novel non-covalent LSD1 inhibitors endowed with anticancer effects in leukemia and solid tumor cellular models” (Eur J Med Chem, 2022):

Key:
LSD1/CoREST complex [1] = target: T1, LSD1/CoREST complex (Homo sapiens, UniProt O60341); assay: Binding affinity to human LSD1/CoREST assessed as dissociation constant by competitive fluorescence polarization assay; format: protein-complex assay
[2] = target: T2, Histone-lysine N-methyltransferase EHMT2 (Homo sapiens, UniProt Q96KQ7); assay: Inhibition of G9a (unknown origin) assessed as reduction in substrate methylation using histone H3 and SAM as substrate measured after 15 to 60 mins by microfluidic capillary electrophoresis analysis
T2 sequence (Q96KQ7 whole entry): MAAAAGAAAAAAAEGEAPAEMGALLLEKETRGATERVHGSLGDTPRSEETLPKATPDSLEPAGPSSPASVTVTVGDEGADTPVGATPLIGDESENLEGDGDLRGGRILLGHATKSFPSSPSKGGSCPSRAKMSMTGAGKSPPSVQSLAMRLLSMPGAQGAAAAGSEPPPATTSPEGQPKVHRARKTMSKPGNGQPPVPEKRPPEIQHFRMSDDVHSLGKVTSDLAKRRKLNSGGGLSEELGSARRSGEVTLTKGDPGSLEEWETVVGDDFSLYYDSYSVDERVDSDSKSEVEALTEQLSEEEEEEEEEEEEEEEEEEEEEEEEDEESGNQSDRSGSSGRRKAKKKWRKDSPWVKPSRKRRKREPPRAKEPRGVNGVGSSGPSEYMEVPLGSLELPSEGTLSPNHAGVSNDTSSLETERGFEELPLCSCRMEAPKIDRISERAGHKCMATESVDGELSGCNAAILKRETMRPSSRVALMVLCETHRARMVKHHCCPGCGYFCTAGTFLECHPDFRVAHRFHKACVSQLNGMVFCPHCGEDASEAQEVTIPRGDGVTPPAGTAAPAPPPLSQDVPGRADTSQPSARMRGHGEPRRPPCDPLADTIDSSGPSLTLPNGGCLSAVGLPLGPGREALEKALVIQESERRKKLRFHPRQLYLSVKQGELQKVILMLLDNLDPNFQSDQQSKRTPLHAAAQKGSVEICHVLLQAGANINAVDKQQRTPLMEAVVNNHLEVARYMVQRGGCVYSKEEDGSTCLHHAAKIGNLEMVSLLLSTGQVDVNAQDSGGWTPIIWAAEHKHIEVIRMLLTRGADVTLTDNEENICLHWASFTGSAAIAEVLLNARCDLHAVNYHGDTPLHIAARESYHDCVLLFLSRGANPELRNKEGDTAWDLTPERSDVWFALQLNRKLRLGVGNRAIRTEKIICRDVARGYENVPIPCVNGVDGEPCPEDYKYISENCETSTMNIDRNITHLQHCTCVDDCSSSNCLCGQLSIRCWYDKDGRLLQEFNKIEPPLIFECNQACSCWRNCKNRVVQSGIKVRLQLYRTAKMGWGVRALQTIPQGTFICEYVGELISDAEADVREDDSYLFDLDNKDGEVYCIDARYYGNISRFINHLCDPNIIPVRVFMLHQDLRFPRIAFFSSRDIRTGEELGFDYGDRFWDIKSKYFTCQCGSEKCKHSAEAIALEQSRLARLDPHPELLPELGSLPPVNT

LSD1/CoREST complex [3] = target: T1, LSD1/CoREST complex; assay: Inhibition of human LSD1/CoREST using histone H3 peptide as substrate by fluorescence polarization assay; format: protein-complex assay
[4] = target: Histone-lysine N-methyltransferase, H3 lysine-79 specific (Homo sapiens) (UniProt Q8TEK3); assay: Inhibition of […] (unknown origin) using [3H]SAM and HeLa oligo nucleosomes as substrates at 100 uM incubated for 1 hr relative to control
Chain of Histone-lysine N-methyltransferase, H3 lysine-79 specific (Homo sapiens) (Q8TEK3 whole entry, looked up): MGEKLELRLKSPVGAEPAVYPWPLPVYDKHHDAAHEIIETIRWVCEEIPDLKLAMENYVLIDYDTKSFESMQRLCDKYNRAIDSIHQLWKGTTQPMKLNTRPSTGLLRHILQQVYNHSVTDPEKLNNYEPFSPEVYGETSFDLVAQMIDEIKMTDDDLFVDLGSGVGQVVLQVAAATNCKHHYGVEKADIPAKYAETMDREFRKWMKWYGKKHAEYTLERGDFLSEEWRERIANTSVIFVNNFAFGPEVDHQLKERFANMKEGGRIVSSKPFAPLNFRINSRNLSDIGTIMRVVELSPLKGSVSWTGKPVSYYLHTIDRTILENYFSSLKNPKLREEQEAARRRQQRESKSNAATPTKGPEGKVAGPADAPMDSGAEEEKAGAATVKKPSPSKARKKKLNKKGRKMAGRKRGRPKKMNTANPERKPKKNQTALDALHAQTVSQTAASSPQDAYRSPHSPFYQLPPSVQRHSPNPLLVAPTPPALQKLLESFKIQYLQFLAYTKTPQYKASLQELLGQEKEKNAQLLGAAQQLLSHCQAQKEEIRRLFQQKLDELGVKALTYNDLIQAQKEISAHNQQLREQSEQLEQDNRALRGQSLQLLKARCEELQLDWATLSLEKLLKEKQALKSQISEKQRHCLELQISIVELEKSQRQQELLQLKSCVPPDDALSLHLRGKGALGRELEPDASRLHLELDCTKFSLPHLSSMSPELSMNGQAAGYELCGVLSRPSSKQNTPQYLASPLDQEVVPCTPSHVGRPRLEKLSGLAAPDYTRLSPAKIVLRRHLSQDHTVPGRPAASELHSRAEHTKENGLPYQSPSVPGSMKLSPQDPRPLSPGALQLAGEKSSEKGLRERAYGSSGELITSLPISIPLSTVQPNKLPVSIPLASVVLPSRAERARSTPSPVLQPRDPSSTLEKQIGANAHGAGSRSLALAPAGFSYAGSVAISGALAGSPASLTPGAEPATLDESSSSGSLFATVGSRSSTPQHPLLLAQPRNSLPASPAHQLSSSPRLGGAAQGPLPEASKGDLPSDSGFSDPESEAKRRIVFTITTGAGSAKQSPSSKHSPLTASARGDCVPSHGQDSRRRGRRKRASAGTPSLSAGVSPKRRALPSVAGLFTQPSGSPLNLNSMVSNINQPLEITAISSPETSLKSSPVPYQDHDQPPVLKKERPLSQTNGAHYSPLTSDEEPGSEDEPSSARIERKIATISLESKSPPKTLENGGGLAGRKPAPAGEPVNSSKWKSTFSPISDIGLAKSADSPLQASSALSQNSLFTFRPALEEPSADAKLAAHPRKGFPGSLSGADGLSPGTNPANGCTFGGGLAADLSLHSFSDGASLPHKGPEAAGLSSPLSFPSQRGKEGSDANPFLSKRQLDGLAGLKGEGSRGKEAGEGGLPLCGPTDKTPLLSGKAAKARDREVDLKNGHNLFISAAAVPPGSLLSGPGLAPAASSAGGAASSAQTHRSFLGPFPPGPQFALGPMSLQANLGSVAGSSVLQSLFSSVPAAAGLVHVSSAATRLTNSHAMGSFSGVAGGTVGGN

[5] = target: Histone-lysine N-methyltransferase EZH2 (Homo sapiens) (UniProt Q15910); assay: Inhibition of EZH2 (unknown origin) using [3H]SAM and chicken core histone as substrates at 100 uM incubated for 1 hr relative to control
Chain of Histone-lysine N-methyltransferase EZH2 (Homo sapiens) (Q15910 whole entry, looked up): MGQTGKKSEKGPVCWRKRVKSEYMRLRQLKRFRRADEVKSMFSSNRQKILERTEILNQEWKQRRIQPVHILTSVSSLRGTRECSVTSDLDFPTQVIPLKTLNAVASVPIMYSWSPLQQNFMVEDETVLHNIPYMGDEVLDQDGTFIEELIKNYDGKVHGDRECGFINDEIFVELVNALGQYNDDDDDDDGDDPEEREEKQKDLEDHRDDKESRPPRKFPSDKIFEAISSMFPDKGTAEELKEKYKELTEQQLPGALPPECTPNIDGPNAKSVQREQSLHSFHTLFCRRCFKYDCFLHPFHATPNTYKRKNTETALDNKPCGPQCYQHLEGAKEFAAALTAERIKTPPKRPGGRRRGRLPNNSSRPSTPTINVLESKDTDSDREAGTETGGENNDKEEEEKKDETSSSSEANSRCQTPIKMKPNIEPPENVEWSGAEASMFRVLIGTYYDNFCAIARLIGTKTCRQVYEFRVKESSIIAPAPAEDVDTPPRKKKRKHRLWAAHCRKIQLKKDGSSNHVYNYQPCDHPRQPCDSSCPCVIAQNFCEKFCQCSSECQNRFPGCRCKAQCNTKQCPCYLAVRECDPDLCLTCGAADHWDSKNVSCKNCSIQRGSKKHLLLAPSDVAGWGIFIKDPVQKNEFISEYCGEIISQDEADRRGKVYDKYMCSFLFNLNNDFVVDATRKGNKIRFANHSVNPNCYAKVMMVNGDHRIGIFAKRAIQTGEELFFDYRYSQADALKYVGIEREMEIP

THP-1 [6] = assay: Antiproliferative activity against human THP-1 cells assessed as inhibition of cell growth incubated for 72 hrs by CellTiter-Glo luminescent cell viability assay; format: functional, cell-based; conditions: THP-1, 72 h
THP-1 [7] = assay: Antiproliferative activity against human THP-1 cells assessed as inhibition of cell growth incubated for 24 hrs by CellTiter-Glo luminescent cell viability assay; format: functional, cell-based; conditions: THP-1, 24 h
THP-1 [8] = assay: Antiproliferative activity against human THP-1 cells assessed as inhibition of cell growth incubated for 144 hrs by CellTiter-Glo luminescent cell viability assay; format: functional, cell-based; conditions: THP-1, 144 h

Kd (LSD1/CoREST complex [1]) [nM] | Ki [2] [nM] | other results | SMILES
1300 | 5820 | – | COc1cc2nc(N(C)CCCN(C)C)nc(NC3CCN(Cc4ccccc4)CC3)c2cc1OC
127 | 20200 | – | COc1cc2c(NCCNc3cccc4ccccc34)nc(NCCCN(C)C)nc2cc1OCc1ccccc1
191 | 13300 | – | COc1cc2nc(NCCCN3CCN(C)CC3)nc(NC3CCN(Cc4ccccc4)CC3)c2cc1OC
68 | 3260 | Ki (LSD1/CoREST complex [3]): 170 nM | COc1cc2nc(NCCCN3CCCCC3)nc(NC3CCN(Cc4ccccc4)CC3)c2cc1OC
147 | 3130 | – | COc1cc2nc(NCCCN(C)C)nc(NC3CCN(CCc4ccccc4)CC3)c2cc1OC
975 | 32900 | – | COc1cc2nc(NCCCN(C)C)nc(NC3CCN(C(=O)c4ccccc4)CC3)c2cc1OC
– | – | inhibition [4]: 100%; inhibition [5]: 84.2% | Nc1ncnc2c1ncn2[C@@H]1O[C@H](CSCC[C@H](N)C(=O)O)[C@@H](O)[C@H]1O
162 | 9010 | – | COc1cc2nc(NCCCN(C)Cc3ccccc3)nc(NC3CCN(Cc4ccccc4)CC3)c2cc1OC
86 | 3940 | Ki (LSD1/CoREST complex [3]): 175 nM | CCN(CC)CCCNc1nc(NC2CCN(Cc3ccccc3)CC2)c2cc(OC)c(OC)cc2n1
112 | 4240 | – | COc1cc2nc(NCCCCN(C)C)nc(NC3CCN(Cc4ccccc4)CC3)c2cc1OC
237 | 5260 | – | COc1cc2nc(NCCN(C)C)nc(NC3CCN(Cc4ccccc4)CC3)c2cc1OC
82 | 46900 | IC50 (THP-1 [6]): 710 nM; IC50 (THP-1 [7]): 870 nM; IC50 (THP-1 [8]): 550 nM; Ki (LSD1/CoREST complex [3]): 205 nM | COc1cc2nc(NCCCN(C)C)nc(NC3CCN(C(=O)OC(C)(C)C)CC3)c2cc1OC
127 | 2790 | – | COc1cc2nc(NCCCCCN(C)C)nc(NC3CCN(Cc4ccccc4)CC3)c2cc1OC
230 | 41500 | – | COc1cc2nc(NCCCN(C)C)nc(NCCNc3cccc4ccccc34)c2cc1OC
